Data from patent publication US7425551B2, “Malonamide derivatives” (Hoffmann-La Roche Inc., priority 2006, dated 2008).
Where “and” joins values, the source holds several entries; their conditions need not be identical. Identical values can stand only once.

How the values were obtained:
γ-secretase = target: T1, γ-secretase (Homo sapiens, UniProt P49768); test: in vitro assay of γ-secretase activity (HEK293 membrane fraction, recombinant APP substrate, Abeta ELISA); type: biochemical; conditions: γ-secretase inhibition; HEK293 membrane fraction solubilized in 0.25% CHAPSO, recombinant human APP C-terminal 100 amino acids substrate, Abeta detected by ELISA
T1 construct: uses a HEK293 membrane fraction as a source of γ-secretase; endogenous in cells; host or cells: HEK293 (microsomal membrane fraction, solubilised in 0.25% CHAPSO)
Source text: Description of 1γ-Secretase Assay The activity of test compounds can be evaluated in assays which measure the proteolytic cleavage of suitable substrates by γ-secretase activity. These can be cellular assays where e.g., a substrate of the γ-secretase is fused in its cytoplasmic domain to a transcription factor. Cells are transfected with this fusion gene and a reporter gene, e.g., firefly luciferase, which expression is enhanced by the transcription factor. Cleavage of the fused substrate by γ-secretase will lead to expression of the reporter gene which can be monitored in appropriate assays. The γ-secretase activity can also be determined in cell-free in vitro assays where e.g., a cell lysate containing the γ-secretase complex is incubated with a suitable APP-derived substrate which is cleaved to the Abeta peptides. The amount of produced peptides can be determined with specific ELISA assays. Cell lines of neuronal origin secrete Abeta peptides which can be measured with the specific ELISA assay. Treatment with compounds which inhibit γ-secretase leads to a reduction of secreted Abeta thus providing a measure of inhibition. The in vitro assay of γ-secretase activity uses a HEK293 membrane fraction as a source of γ-secretase and a recombinant APP substrate. Latter consist of the C-terminal 100 amino acids of human APP fused to a 6× Histidin tail for purification which is expressed in E. coli in a regulatable expression vector, e.g. pEt15. This recombinant protein corresponds to the truncated APP fragment which results after […] of the extracellular domain and which constitutes the γ-secretase substrate. The assay principle is described in Li Y M et al, PNAS 97(11), 6138-6143 (2000). Hek293 cells are mechanically disrupted and the microsomal fraction is isolated by differential centrifugation. The membranes are solubilized in detergent (0.25% CHAPSO) and incubated with the APP substrate. The Abeta peptides which are produced by γ-secretase cleavage of the substrate are detected by specific ELISA assays as described (Brockhaus M et al, Neuroreport 9(7), 1481-1486 (1998).

| IC50 (γ-secretase) [nM] | SMILES | melting point |
| --- | --- | --- |
| 12 | C[C@H](OC(=O)NCCC(F)(F)C(F)(F)F)C(=O)N[C@@H]1C(=O)N(CCO)c2ccccc2-c2ccccc21 [Example 38, (3,3,4,4,4-Pentafluoro-butyl)-carbamic acid (S)-1-[(S)-5-(2-hydroxy-ethyl)-6-oxo-6,7-dihydro-5H-dibenzo[b,d]azepin-7-ylcarbamoyl]-ethyl ester] | 181 to 184 °C |
| 157 | C[C@](F)(C(=O)NCC(F)(F)F)C(=O)N[C@@H]1C(=O)N(CCO)c2ccccc2-c2ccccc21 [Example 49, (S)-2-Fluoro-N—[(S)-5-(2-hydroxy-ethyl)-6-oxo-6,7-dihydro-5H-dibenzo[b,d]azepin-7-yl]-2-methyl-N′-(2,2,2-trifluoro-ethyl)-malonamide] | – |
| 16 | C[C@](F)(C(=O)NCCC(F)(F)C(F)(F)F)C(=O)N[C@@H]1C(=O)N(CCO)c2ccccc2-c2ccccc21 [Example 50, (S)-2-Fluoro-N—[(S)-5-(2-hydroxy-ethyl)-6-oxo-6,7-dihydro-5H-dibenzo[b,d]azepin-7-yl]-2-methyl-N′-(3,3,4,4,4-pentafluoro-butyl)-malonamide] | – |
| 9 | C[C@@](F)(C(=O)NCC(F)(F)F)C(=O)N[C@@H]1C(=O)N(CCO)c2ccccc2-c2ccccc21 [Example 53, (R)-2-Fluoro-N—[(S)-5-(2-hydroxy-ethyl)-6-oxo-6,7-dihydro-5H-dibenzo[b,d]azepin-7-yl]-2-methyl-N′-(2,2,2-trifluoro-ethyl)-malonamide] | – |
| 8 | C[C@@](F)(C(=O)NCCC(F)(F)F)C(=O)N[C@@H]1C(=O)N(CCO)c2ccccc2-c2ccccc21 [Example 54, (R)-2-Fluoro-N—[(S)-5-(2-hydroxy-ethyl)-6-oxo-6,7-dihydro-5H-dibenzo[b,d]azepin-7-yl]-2-methyl-N-(3,3,3-trifluoro-propyl)-malonamide] | – |
| 12 | CC(O)(C(=O)NCCC(F)(F)C(F)(F)F)C(=O)N[C@@H]1C(=O)N(CCOCc2ccccc2)c2ccccc2-c2ccccc21 (stereo partly drawn) [Example 55, N—[(S)-5-(2-Benzyloxy-ethyl)-6-oxo-6,7-dihydro-5H-dibenzo[b,d]azepin-7-yl]-2-hydroxy-2-methyl-N′-(3,3,4,4,4-pentafluoro-butyl)-malonamide] | – |
| 2 | CC(O)(C(=O)NCCC(F)(F)C(F)(F)F)C(=O)N[C@@H]1C(=O)N(CCO)c2ccccc2-c2ccccc21 (stereo partly drawn) [Example 56, 2-Hydroxy-N—[(S)-5-(2-hydroxy-ethyl)-6-oxo-6,7-dihydro-5H-dibenzo[b,d]azepin-7-yl]-2-methyl-N′-(3,3,4,4,4-pentafluoro-butyl)-malonamide] | – |
| 190 | C[C@@](O)(C(=O)NCC(F)(F)F)C(=O)N[C@@H]1C(=O)N(CCO)c2ccccc2-c2ccccc21 [Example 59, (R)-2-Hydroxy-N—[(S)-5-(2-hydroxy-ethyl)-6-oxo-6,7-dihydro-5H-dibenzo[b,d]azepin-7-yl]-2-methyl-N′-(2,2,2-trifluoro-ethyl)-malonamide] | – |
| 4 | C[C@](O)(C(=O)NCC(F)(F)F)C(=O)N[C@@H]1C(=O)N(CCO)c2ccccc2-c2ccccc21 [Example 60, (S)-2-Hydroxy-N—[(S)-5-(2-hydroxy-ethyl)-6-oxo-6,7-dihydro-5H-dibenzo[b,d]azepin-7-yl]-2-methyl-N′-(2,2,2-trifluoro-ethyl)-malonamide] | – |
| 10 | CC(O)(C(=O)NCCC(F)(F)F)C(=O)N[C@@H]1C(=O)N(CCO)c2ccccc2-c2ccccc21 (stereo partly drawn) [Example 64, 2-Hydroxy-N—[(S)-5-(2-hydroxy-ethyl)-6-oxo-6,7-dihydro-5H-dibenzo[b,d]azepin-7-yl]-2-methyl-N′-(3,3,3-trifluoro-propyl)-malonamide] | 61 to 69 °C and 59 to 62 °C and 64 to 71 °C |
| 5 | COCCN1C(=O)[C@@H](NC(=O)C(C)(C)C(=O)NCC(F)(F)C(F)(F)F)c2ccccc2-c2ccccc21 [Example 67, N—[(S)-5-(2-Methoxy-ethyl)-6-oxo-6,7-dihydro-5H-dibenzo[b,d]azepin-7-yl]-2,2-dimethyl-N′-(2,2,3,3,3-pentafluoro-propyl)-malonamide] | – |
| 6 | CCOCCN1C(=O)[C@@H](NC(=O)C(C)(C)C(=O)NCC(F)(F)C(F)(F)F)c2ccccc2-c2ccccc21 [Example 71, N—[(S)-5-(2-Ethoxy-ethyl)-6-oxo-6,7-dihydro-5H-dibenzo[b,d]azepin-7-yl]-2,2-dimethyl-N′-(2,2,3,3,3-pentafluoro-propyl)-malonamide] | – |

Second part, the compound before the results:

| SMILES | IC50 (γ-secretase) [nM] | melting point |
| --- | --- | --- |
| C[C@H](OC(=O)NCC(F)(F)F)C(=O)N[C@@H]1C(=O)N(CCO)c2ccccc2-c2ccccc21 [Example 48, (2,2,2-Trifluoro-ethyl)-carbamic acid (S)-1-[(S)-5-(2-hydroxy-ethyl)-6-oxo-6,7-dihydro-5H-dibenzo[b,d]azepin-7-ylcarbamoyl]-ethyl ester] | 14 | – |
| C[C@@](F)(C(=O)NCCC(F)(F)F)C(=O)N[C@@H]1C(=O)N(CCOCc2ccccc2)c2ccccc2-c2ccccc21 [Example 51, (R)—N—[(S)-5-(2-Benzyloxy-ethyl)-6-oxo-6,7-dihydro-5H-dibenzo[b,d]azepin-7-yl]-2-fluoro-2-methyl-N′-(3,3,3-trifluoro-propyl)-malonamide] | 7 | – |
| C[C@@](F)(C(=O)NCC(F)(F)F)C(=O)N[C@@H]1C(=O)N(CCOCc2ccccc2)c2ccccc2-c2ccccc21 [Example 52, (R)—N—[(S)-5-(2-Benzyloxy-ethyl)-6-oxo-6,7-dihydro-5H-dibenzo[b,d]azepin-7-yl]-2-fluoro-2-methyl-N′-(2,2,2-trifluoro-ethyl)-malonamide] | 10 | – |
| C[C@@](O)(C(=O)NCC(F)(F)F)C(=O)N[C@@H]1C(=O)N(CCOCc2ccccc2)c2ccccc2-c2ccccc21 [Example 57, (R)—N—[(S)-5-(2-Benzyloxy-ethyl)-6-oxo-6,7-dihydro-5H-dibenzo[b,d]azepin-7-yl]-2-hydroxy-2-methyl-N′-(2,2,2-trifluoro-ethyl)-malonamide] | 90 | – |
| C[C@](O)(C(=O)NCC(F)(F)F)C(=O)N[C@@H]1C(=O)N(CCOCc2ccccc2)c2ccccc2-c2ccccc21 [Example 58, (S)—N—[(S)-5-(2-Benzyloxy-ethyl)-6-oxo-6,7-dihydro-5H-dibenzo[b,d]azepin-7-yl]-2-hydroxy-2-methyl-N′-(2,2,2-trifluoro-ethyl)-malonamide] | 8 | – |
| CC(O)(C(=O)NCCC(F)(F)F)C(=O)N[C@@H]1C(=O)N(CCOCc2ccccc2)c2ccccc2-c2ccccc21 (stereo partly drawn) [Example 63, N—[(S)-5-(2-Benzyloxy-ethyl)-6-oxo-6,7-dihydro-5H-dibenzo[b,d]azepin-7-yl]-2-hydroxy-2-methyl-N′-(3,3,3-trifluoro-propyl)-malonamide] | 2 | – |
| COCCN1C(=O)[C@@H](NC(=O)C(OC)C(=O)NCC(F)(F)C(F)(F)F)c2ccccc2-c2ccccc21 (stereo partly drawn) [Example 68, 2-Methoxy-N—[(S)-5-(2-methoxy-ethyl)-6-oxo-6,7-dihydro-5H-dibenzo[b,d]azepin-7-yl]-N′-(2,2,3,3,3-pentafluoro-propyl)-malonamide] | 9 | – |
| CC(C)(C(=O)NCC(F)(F)C(F)(F)F)C(=O)N[C@@H]1C(=O)N(CCOc2ccc(F)cc2)c2ccccc2-c2ccccc21 [Example 69, N-{(S)-5-[2-(4-Fluoro-phenoxy)-ethyl]-6-oxo-6,7-dihydro-5H-dibenzo[b,d]azepin-7-yl}-2,2-dimethyl-N′-(2,2,3,3,3-pentafluoro-propyl)-malonamide] | 6 | – |
| CC(C)OCCN1C(=O)[C@@H](NC(=O)C(C)(C)C(=O)NCC(F)(F)C(F)(F)F)c2ccccc2-c2ccccc21 [Example 70, N—[(S)-5-(2-Isopropoxy-ethyl)-6-oxo-6,7-dihydro-5H-dibenzo[b,d]azepin-7-yl]-2,2-dimethyl-N′-(2,2,3,3,3-pentafluoro-propyl)-malonamide] | 7 | – |
| CC(C)(C(=O)NCC(F)(F)C(F)(F)F)C(=O)N[C@@H]1C(=O)N(CC(O)C(F)(F)F)c2ccccc2-c2ccccc21 (stereo partly drawn) [Example 72, 2,2-Dimethyl-N—[(S)-6-oxo-5-(3,3,3-trifluoro-2-hydroxy-propyl)-6,7-dihydro-5H-dibenzo[b,d]azepin-7-yl]-N′-(2,2,3,3,3-pentafluoro-propyl)-malonamide] | 1 | – |
